The subject of assay [1] is C. albicans. The assay is described as follows: septic murine candidosis model, oral therapy. The class given is in vivo, CFW₁-Mäuse. To be noted: for Zahl der überlebenden Tiere in den folgenden Tagen nach der Infektion: 2 x 100 mg/kg oral on the day of infection, 10 animals at day 0. How it is done: Wirksamkeit von Nikkomycin X und Z in dem Tiermodell von Murine candidosis.
Gezüchtete CFW₁-Mäuse wurden intravenös mit 6 x 10⁵ cfu von C. albicans infiziert. Die orale Therapie wurde gleichzeitig mit der Infektion gestartet. Die Mittel wurden einzeln mit Nährnadeln in Volumina von 0,5 ml ausgegeben.
In dem Modell der septischen Murine candidosis, das häufig zum Testen von Azolen verwendet wird, wird die Behandlung der Tiere gleichzeitig mit der Infektion gestartet, indem man 2 x 100 mg/kg beider Zubereitungen am Tag der Infektion verabreichte. Diese Verabreichungsweise erzeugt nur eine leichte Verzögerung in der lethalen Kinetik (Tabelle 1).

Assay [2] relates to Candida albicans-Strang B311. Put plainly: checkerboard in vitro synergy test (microtiter plates, growth inhibition endpoints, isobolograms). As to conditions: combination with Nikkomycin versus azole alone. The class given is cell-based. An excerpt: Um die Eignung von Nikkomycinen und Azolen hinsichtlich der synergistischen Wirkung zu testen, wurde ein schachbrettartiger in vitro-Versuch mit der Hefe Candida albicans durchgeführt.
Ein Candida albicans-Strang B311 wurde über Nacht in einer Glucose-Hefeextrakt-Kultur gezüchtet, gewaschen und auf die gewünschte Dichte gebracht.
Die Tests wurden in 96-Loch-Mikrotiterplatten durchgeführt, wobei man eine Hefestickstoffkultur mit Dextrose und Asparagin als Wachstumsmedium verwendete. Die Testmaterialien wurden gelöst, serienmässig verdünnt und dann in die geeigneten Löcher der Mikrotiterplatten überführt, so dass die Endkonzentrationen von 0,02 bis 1 mMol für die Nikkomycine, und 0,06 bis 64 µg für die Azole betrugen. Alle Löcher wurden mit 10.000 Organismen/ml (Endkonzentration) geimpft,und die Platten bei Raumtemperatur 48 Stunden lang inkubiert. Die Platten wurden dann ausgewertet,und die Wachstumsrate für jedes Loch festgestellt. Die Endpunkte wurden für jede Reihe als niedrigste Konzentration, die eine vollständige Inhibierung des Wachstums zeigte, bestimmt. Die Daten wurden als Isobologramme geplottet, die die Endpunkte für die einzelnen Verbindungen als auch die Endpunkte für die verschiedenen Kombinationen zeigten. […]

Some results are limits rather than exact numbers.

On to `C[C@@H]([C@H](N)C(=O)N[C@H](C(=O)O)[C@H]1O[C@@H](n2ccc(=O)[nH]c2=O)[C@H](O)[C@@H]1O)[C@H](O)c1ccc(O)cn1` [Nikkomycin Z], for which the Wirksamkeit entry in assay [1] (14-day treatment, daily dose 2 x 10 mg/kg, Fig. 2) was “wirksamer als 2 x 100 mg/kg”; in assay [1] (treatment period 3 days, 100 mg/kg, Fig. 1), “vergleichbar zu der von 25 mg/kg Ketoconazol oder Vibunazol”. For the same compound, the “Zahl der überlebenden Tiere in den folgenden Tagen nach der Infektion” value in assay [1] (day 3 after infection) is reported as 6; in assay [1] (day 6 after infection), 5.

`C[C@@H]([C@H](N)C(=O)N[C@H](C(=O)O)[C@H]1O[C@@H](n2cc(C=O)[nH]c2=O)[C@H](O)[C@@H]1O)[C@H](O)c1ccc(O)cn1` [Nikkomycin X]: the “Zahl der überlebenden Tiere in den folgenden Tagen nach der Infektion” value in assay [1] (day 3 after infection) came to 10; in assay [1] (day 6 after infection), 3.

With `Clc1ccccc1C(c1ccccc1)(c1ccccc1)n1ccnc1` [Clotrimazol], the “Reduktion des Endpunktes für die Kombination hinsichtlich des Azolendpunktes” value in assay [2] was ≥ 50 -fach.

The record behind these values is EP0315861A1, “Antimycotic compositions of a nikkomycin compound and an antimycotic azole” (BAYER AG, priority 1987, dated 1989).
